Data as given in US20040247639A1, “Novel methods and compositions for the treatment or prevention of dysmenorrhoea and menstrual side effects: the use of phospholipase inhibitors” (priority 2000, published 2004).
Read-outs that look alike come from different tables or passages of the source. One block for each compound: values may come before it.

Assays:
[1] = tested on: rat uterus; assay: Oxytocin-challenged uterine work in uteri of ovarectomised, sex hormone-treated rats; design: maximum decrease in the intensity of the oxytocin response: dose or concentration left out as unconfirmed; conditions: for inhibition at 0.1 µM: 100 nM; for maximum uterine work with oxytocin: hormone-treated group challenged with 100 mU oxytocin; for change of oxytocin EC50 values: 1 nM-1 μM
Excerpt: (§1) To examine the potential benefit of PLA2 inhibitors in treating dysmenorrhoea in women, an in vitro model was developed which measured the force and frequency of contractions in a rat uterus. When removed from the rat and placed in an organ bath, the uterus contracts rhythmically. The force of contraction varies with the profile of sex hormones produced by the animal at the different stages of the sexual (oestrus) cycle. Levels of oestrogen and progesterone fluctuate throughout the sexual cycle. To ensure a reproducible model, rats were ovarectomised and oestrogen, progesterone, a combination of oestrogen and progesterone and an inert control substance were given to mimic different stages of the sexual cycle.
(§2) In a separate series of experiments, rats were ovarectomised then treated with sex hormones to ensure animals are at the same stage of the oestrus cycle. Uteri were removed from the rats 4 days after hormone treatment, allowed to equilibrate in the organ baths for 30 minutes, then the intensity of uterine contractions and frequency of the spontaneous contractions was measured. In the oestrogen-primed uteri, spontaneous uterine work was […], in progesterone-primed rats, 10±0.9 mNs^−1, in oestrogen plus progesterone-primed uteri, 9±1.5 mNs^−1 and in control uteri 7.9±0.6 mNs^−1.
Challenging with oxytocin caused an increase in uterine work over baseline spontaneous activity.
(§3) sPLA2 inhibitor 5 and ketoprofen were tested in the model to determine their ability to moderate both spontaneous contractions and contractile activity stimulated by oxytocin.

[2] = tested on: rat uterus; assay: Spontaneous uterine work in uteri of ovarectomised, sex hormone-treated rats; conditions: for spontaneous uterine work: uteri removed 4 days after hormone treatment of ovarectomised rats, n=4-5
Excerpt: as §1, §2, §3

[3] = tested on: rat uterus; assay: Rat uterine contractions, spontaneous and oxytocin-induced together; conditions: for EC50: Rattus norvegicus; for drug concentrations suppressing spontaneous and oxytocin-induced uterine contractions: rat uterine model
Excerpt: as §1
In this model the uterine contractions are stimulated by the synthesis and release of eicosanoids and other contractile mediators by cells in the uterus, which then act on the muscle cells in the uterine wall to cause contraction. […] Addition of oxytocin, a hormone synthesised in the pituitary gland, gives uterine contractions of greater force and frequency by increasing the release of eicosanoids (Wassdal, I et al, 1998, Acta Physiol Scand, 164: 47-52, Burns, P D et al, 1998, Domest Anim Endocrinol, 15: 477-487, Asselin, E et al, 1997, Endocrinology, 138: 4798-4805). There is a relationship between the stage of the sexual cycle and the sensitivity of the uterus to oxytocin (Engstrom, T et al., 1999, J. Endocrinol., 161: 403-411). It has been shown that the contractions can be reduced if the synthesis of the mediators is blocked.
(§4) Uteri were removed from rats, divided into 4 segments and placed in organ baths to measure force and frequency of contraction. Spontaneous contractions were measured, then each segment of uterus was challenged with oxytocin (1 μI.U. to 100 mI.U.). The force and frequency of contraction was measured after oxytocin addition and a concentration response curve generated. The drugs—either an sPLA2 inhibitor or a NSAID—was then added to the bath and allowed to equilibrate for 30 minutes. The drugs were tested at concentrations ranging from 1 nM to 10 μM with one piece of tissue per concentration. The tissue was then challenged with increasing concentrations of oxytocin to generate a second concentration-response curve. The EC50 concentrations in control and drug-treated tissue were determined from the curves and compared.

[4] = target: T1, type V human non-pancreatic sPLA2 (Homo sapiens, UniProt P39877); conditions: Chen, Y. et al, 1998; cited from earlier work
T1 sequence (P39877 21-138): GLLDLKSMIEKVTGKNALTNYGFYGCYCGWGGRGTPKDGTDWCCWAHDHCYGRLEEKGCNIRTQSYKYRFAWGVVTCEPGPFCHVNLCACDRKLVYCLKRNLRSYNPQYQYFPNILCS

[5] = tested on: rat uterus; assay: Oxytocin-induced contractions of rat uterus in organ bath (naturally-cycling rats)
Excerpt: as §1, with “To ensure a reproducible model, rats were ovarectomised and oestrogen, progesterone, a combination of oestrogen and progesterone and an inert control substance were given to mimic different stages of the sexual cycle.” left out
(§5) In this model the uterine contractions are stimulated by the synthesis and release of eicosanoids and other contractile mediators by cells in the uterus, which then act on the muscle cells in the uterine wall to cause contraction. Compounds 5 and 9 were tested for their ability to inhibit spontaneous and oxytocin-induced contractions of a female rat uterus (described ahead). Addition of oxytocin, a hormone synthesised in the pituitary gland, gives uterine contractions of greater force and frequency by increasing the release of eicosanoids (Wassdal, I et al, 1998, Acta Physiol Scand, 164: 47-52, Burns, P D et al, 1998, Domest Anim Endocrinol, 15: 477-487, Asselin, E et al, 1997, Endocrinology, 138: 4798-4805). There is a relationship between the stage of the sexual cycle and the sensitivity of the uterus to oxytocin (Engstrom, T et al., 1999, J. Endocrinol., 161: 403-411). It has been shown that the contractions can be reduced if the synthesis of the mediators is blocked.
as §4

[6] = tested on: rat uterus; assay: Spontaneous contractions of rat uterus in organ bath (naturally-cycling rats)
Excerpt: as §1, with “To ensure a reproducible model, rats were ovarectomised and oestrogen, progesterone, a combination of oestrogen and progesterone and an inert control substance were given to mimic different stages of the sexual cycle.” left out
as §5, §4

[7] = tested on: monocyte leukotriene release; conditions: Cha, 1996; cited from earlier work
[8] = target: T2, human non-pancreatic secretory PLA2 (type IIa) (Homo sapiens, UniProt P14555); assay: Mixed micelle colorimetric assay for inhibition of human non-pancreatic sPLA2 (type IIa); assay type: biochemical; conditions: thio-PC/Triton X-100 mixed micelles, 37° C., Dixon plot (FIG. 3); read-out: IC50 against human non-pancreatic sPLA2 (type IIa)
T2 sequence (P14555 21-144): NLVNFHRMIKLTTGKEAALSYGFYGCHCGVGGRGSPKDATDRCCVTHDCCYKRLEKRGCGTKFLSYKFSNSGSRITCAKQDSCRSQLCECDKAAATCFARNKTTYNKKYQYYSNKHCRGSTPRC
Method: Reagents were obtained commercially in the sPhospholipase A2 Assay Kit, Cayman Chemical Company MI USA. Buffer (25 mM Tris HCl at pH 7.5, 1 mg/mL BSA, 0.3 mM Triton X-100, 100 mM KCl, 10 mM CaCl2), substrate (diheptanoyl thio-phosphatidyl choline), DTNB (5,5′-dithiobis(2-nitrobenzoic acid)) and a 96 well plate were all provided. Recombinant hIIa-PLA2 was provided by the Garvan Institute for Medical Research. […] Standard inhibitor solutions were prepared from anhydrous DMSO. All samples were run in triplicate including the blank and control samples.
[…] Thio-PC is processed by s-PLA2 and the free thiol produced is detected with DTNB (Ellman's Reagent). 5-Thio-2-nitrobenzoic acid is detected spectrophotometrically at […]. IC50's were determined by assaying inhibitors at a range of concentrations.

[9] = Rattus norvegicus, Oestrogen (O) group, mean ± SEM, read-out: maximum inhibition of uterine work, oxytocin challenge
[10] = Rattus norvegicus, Vehicle group, mean ± SEM, read-out: maximum inhibition of uterine work, oxytocin challenge
[11] = range over spontaneous and oxytocin-induced contractions, read-out: EC50, inhibition of uterine contractions
[12] = Table 1, rat uterus model, read-out: ED50 Oxytocin-induced contractions
[13] = Table 1, rat uterus model, read-out: ED50 Spontaneous contractions
[14] = Table 1, rat uterus model, NSAIDs

Compound: CC(C(=O)O)c1cccc(C(=O)c2ccccc2)c1 (stereo not drawn) [Ketoprofen, ketoprofen, reference compound]
- maximum inhibition of uterine work, oxytocin challenge ([1]; O + P group, up to 10 μM): no inhibitory effect
- inhibition at 0.1 µM [1, 9]: 29%
- inhibition at 0.1 µM ([1]; Rattus norvegicus, Progesterone (P) group, mean ± SEM, read-out: maximum inhibition of uterine work, oxytocin challenge): 84%
- inhibition at 0.1 µM [1, 10]: 79%

Compound: oestrogen
- maximum uterine work with oxytocin [1]: 15.7 mNs^−1
- spontaneous uterine work [2]: 7.2±1.4 mNs^−1

- EC50 ([3]; FIG. 6, n=2, read-out: EC50, spontaneous contraction and oxytocin induced contractions in rat uterus): ~100 nM
- EC50 [3, 11]: 80 to 200 nM
- EC50 [5, 12]: 200 nM
- EC50 [6, 13]: 80 nM
Compound: Cc1c(CC(N)=O)c2cc(OCCCP(=O)(O)O)ccc2n1Cc1ccccc1 [Compound 9, [3-(1-Benzyl-3-carbamoylmethyl-2-methyl-1H-indol-5-yloxy)-propyl]-phosphonic acid]
- IC50 [4]: 36 nM

- EC50 ([5]; Table 1, rat uterus model, NSAIDs, read-out: ED50 Oxytocin-induced contractions): 1000 nM
- EC50 ([6]; Table 1, rat uterus model, NSAIDs, read-out: ED50 Spontaneous contractions): 1000 nM
Compound: Cc1c(Nc2ncccc2C(=O)O)cccc1C(F)(F)F [Flunixin, flunixin meglumine, reference compound]
- drug concentrations suppressing spontaneous and oxytocin-induced uterine contractions [3]: micromolar to millimolar
- effect on oxytocin-induced contractions ([5]; FIG. 7, n=3): no effect
- effect on spontaneous rat uterine contractions ([6]; FIG. 7, 1 μM and 5 μM, n=3): reduced spontaneous contractions

Compound: CN1C(C(=O)Nc2ccccn2)=C(O)c2ccccc2S1(=O)=O [Piroxicam, piroxicam, reference compound]
- drug concentrations suppressing spontaneous and oxytocin-induced uterine contractions [3]: micromolar to millimolar
- ED50 Oxytocin-induced contractions [5, 14]: No Effect
- ED50 Spontaneous contractions [6, 14]: No effect

Compound: CC(=O)[C@H]1CC[C@H]2[C@@H]3CCC4=CC(=O)CC[C@]4(C)[C@H]3CC[C@]12C [progesterone]
- maximum uterine work with oxytocin [1]: 0.9 mNs^−1
- spontaneous uterine work [2]: 10±0.9 mNs^−1

- melting point: 89 to 91.5 °C
- change of oxytocin EC50 values ([1]; oestrogen and progesterone treated uteri, n=5): did not inhibit
- change of oxytocin EC50 values ([1]; oestrogen treated uteri, n=4): did not alter
- IC50 [8]: 42 nM
- EC50 [3, 11]: 1 to 20 nM
- EC50 ([5]; Rattus norvegicus, FIG. 5, n=3, read-out: ED50, uterine contractions induced by oxytocin): 20 nM
- EC50 [5, 12]: 20 nM
- EC50 ([6]; Rattus norvegicus, FIG. 4, n=3, read-out: EC50, spontaneous activity of rat uteri in the organ bath): 30 nM
- EC50 [6, 13]: 30 nM
Compound: O=C(O)CC[C@@H](CSc1ccc(Cc2ccccc2)cc1)NC(=O)CCCCCCc1ccccc1 [Compound 5, (S)-5-(4-Benzyl-phenylsulfanyl)-4-(7-phenyl-heptanoylamino)-pentanoic acid]
- IC50 [7]: 350 nM
- inhibition at 0.001 µM ([1]; Rattus norvegicus, O + P group, 1 nM, mean ± SEM, read-out: maximum inhibition of uterine work, oxytocin challenge): 62%
- inhibition at 0.1 µM [1, 9]: 34%
- inhibition at 0.01 µM ([1]; Rattus norvegicus, Progesterone (P) group, 10 nM, mean ± SEM, read-out: maximum inhibition of uterine work, oxytocin challenge): 65%
- inhibition at 0.1 µM [1, 10]: 40%
- maximum decrease in the intensity of the oxytocin response ([1]; oestrogen treated uteri): 34%±5%
- potency in inhibiting uterine contractions compared to NSAIDs [3]: 1,000 fold
- effect on spontaneous activity ([2]; oestrogen and progesterone treated uteri, 1 nM-1 μM, n=5): did not inhibit
- effect on spontaneous activity ([2]; oestrogen treated uteri, 10 nM, n=4, P<0.05): inhibited
- effect on spontaneous activity ([2]; oil vehicle (control) rats, 1 nM, n=4, P<0.05): inhibited spontaneous activity
- effect on spontaneous activity ([2]; progesterone treated uteri, 1 nM-1 μM, n=5): did not significantly inhibit

Compound: COc1ccc2cc([C@H](C)C(=O)O)ccc2c1 [naproxen, reference compound]
- drug concentrations suppressing spontaneous and oxytocin-induced uterine contractions [3]: micromolar to millimolar
